Converted amounts (≈) assume the structure as drawn.
Legend:
Assay in all cases: MIC assay (Japan Society of Chemotherapy), antibacterial activity
Format in all cases: cell-based
P. mirabillis 60 = settings: piperacillin used singly; 10^6 CFU/ml; 37° C., 20 hours; read-out: MIC piperacillin alone
Method: (§1) The minimal inhibitory concentration (MIC) of piperacillin in the presence of 5 μg/ml of the compounds of the present invention against various bacteria were determined by the MIC assay method of Japan Society of Chemotherapy (Chemotherapy 29(1), pp. 76-79, 1981).
(§2) The MIC value of the various compounds according to the invention and piperacillin, as used singly, were also determined. Each test strain was grown on Mueller Hinton Medium (Difco) and used for inoculation after dilution to concentration of 10^6 CFU/ml. The assay media (Mueller Hintoon Medium) containing piperacillin and the compound of the invention in a series of concentrations were inoculated with the test strain and incubated at 37° C. for 20 hours.
(§3) The minimum concentration at which no more than 5 colonies were observed was determined. […] All the test strains used in the above assay were β-lactamase producers.

P. aeruginosa PSE3 = settings: Pseudomonas aeruginosa, piperacillin used singly, 10^6 CFU/ml, 37° C., 20 hours, read-out: MIC piperacillin alone
Method: as §1, §2, §3

E. coli OXA3 = settings: Escherichia coli, OXA3, 20 h, read-out: MIC piperacillin alone
Method: as §1, §2, §3

E. coli SHV1 = settings: Escherichia coli, SHV1, 20 h, read-out: MIC piperacillin alone
Method: as §1, §2, §3

Serratia 200L = settings: piperacillin used singly, 10^6 CFU/ml, 37° C., 20 hours, read-out: MIC piperacillin alone
Method: as §1, §2, §3

K. pneumoniae 101L = settings: Klebsiella pneumoniae, piperacillin used singly, 10^6 CFU/ml, 37° C., 20 hours, read-out: MIC piperacillin alone
Method: as §1, §2, §3

E. coli 1573E = settings: Escherichia coli, piperacillin used singly, 10^6 CFU/ml, 37° C., 20 hours, read-out: MIC piperacillin alone
Method: as §1, §2, §3

Citrobacter 2046E = settings: piperacillin used singly, 10^6 CFU/ml, 37° C., 20 hours, read-out: MIC piperacillin alone
Method: as §1, §2, §3

Citrobacter 962L = settings: piperacillin used singly, 10^6 CFU/ml, 37° C., 20 hours, read-out: MIC piperacillin alone
Method: as §1, §2, §3

P. aeruginosa PSE4 = settings: Pseudomonas aeruginosa, piperacillin used singly, 10^6 CFU/ml, 37° C., 20 hours, read-out: MIC piperacillin alone
Method: as §1, §2, §3

S. aureus 54K = settings: Staphylococcus aureus, 20 h, read-out: MIC piperacillin alone
Method: as §1, §2, §3

E. coli TEM1 = settings: Escherichia coli, TEM1, 20 h, read-out: MIC piperacillin alone
Method: as §1, §2, §3

## CCN1CCN(C(=O)N[C@@H](C(=O)N[C@@H]2C(=O)N3[C@@H]2SC(C)(C)[C@@H]3C(=O)O)c2ccccc2)C(=O)C1=O [piperacillin]
P. mirabillis 60
  MIC: 1.56 µg/mL (≈ 3.01 µM)
P. aeruginosa PSE3
  MIC: 50 µg/mL (≈ 96.6 µM)
E. coli OXA3
  MIC: 3.13 µg/mL (≈ 6.05 µM)
E. coli SHV1
  MIC: 25 µg/mL (≈ 48.3 µM)
Serratia 200L
  MIC: 25 µg/mL (≈ 48.3 µM)
K. pneumoniae 101L
  MIC: 100 µg/mL (≈ 193 µM)
E. coli 1573E
  MIC: 6.25 µg/mL (≈ 12.1 µM)
Citrobacter 2046E
  MIC: 25 µg/mL (≈ 48.3 µM)
Citrobacter 962L
  MIC: 100 µg/mL (≈ 193 µM)
P. aeruginosa PSE4
  MIC: 200 µg/mL (≈ 386 µM)
S. aureus 54K
  MIC: 3.13 µg/mL (≈ 6.05 µM)
E. coli TEM1
  MIC: 100 µg/mL (≈ 193 µM)

— patent US4891369A, “2β-Substituted-methylpenicillanic acid derivatives, and salts and esters thereof” (Taiho Pharmaceutical Company, Limited, priority 1986, dated 1990)
